Data published in publication PMC6270837, “Preparation and Biological Properties of Ring-Substituted Naphthalene-1-Carboxanilides” (Molecules, 2014).
“And” between values parts separate entries of the source, which are not always exact repeats. Identical values can stand only once. Like-named read-outs stand apart in the source and are kept apart here.

Assays:
[1] = Lipophilicity determination by RP-HPLC (capacity factor, log k); assay type: physicochemical; details: end-capped C18, isocratic MeOH 60%/H2O 40%
Protocol: Lipophilicity is a property that has a major effect on bioavailability, biotransformation as well as pharmacological activity, because drugs cross biological membranes through passive transport, which strongly depends on their lipophilicity. Lipophilicity of the studied compounds was determined by RP‑HPLC as capacity factor logarithm (log k). The procedure was performed under isocratic conditions with methanol as an organic modifier in the mobile phase using an end-capped non-polar C18 stationary RP column. The results of ring-substituted naphthalene-1-carboxanilides 1–8c are shown in Table 1 and illustrated in Figure 1. […] Lipophilicity was also calculated as log P using ACD/Percepta ver. 2012 (Advanced Chemistry Development, Inc., Toronto, ON, Canada).
A HPLC system Agilent 1200 equipped with DAD detector (Agilent, USA) was used. A chromatographic column Symmetry® C18 5 μm, 4.6 × 250 mm, Part No. WAT054275 (Waters Corp., Milford, MA, USA) was used. The HPLC separation process was monitored and evaluated by EZChrom Elite software ver. 3.3.2 (Agilent, USA). Isocratic elution by a mixture of MeOH p.a. (60%) and H2O-HPLC Mili-Q grade (40%) as a mobile phase was used. The total flow of the column was 1.0 mL/min, injection 20 μL, column temperature 40 °C, and sample temperature 10 °C. The detection wavelength 210 nm was chosen. The KI methanolic solution was used for the dead time (tD) determination. Retention times (tR) were measured in minutes. The capacity factors k were calculated according to formula k = (tR − tD)/tD, where tR is the retention time of the solute, whereas tD denotes the dead time obtained using an unretained analyte. Log k, calculated from the capacity factor k, is used as the lipophilicity index converted to log P scale.

[2] = Solubility in PET tested medium; assay type: physicochemical; details: PET assay medium, phosphate buffer pH 7.2, DMSO up to 4%
Protocol: (§1) Chloroplasts were prepared from spinach (Spinacia oleracea L.) according to Masarovicova and Kralova. The inhibition of photosynthetic electron transport (PET) in isolated spinach chloroplasts was determined spectrophotometrically (Genesys 6, Thermo Scientific, USA), using an artificial electron acceptor 2,6-dichlorophenol-indophenol (DCIPP) according to Kralova et al., and the rate of photosynthetic electron transport was monitored as a photoreduction of DCPIP. The measurements were carried out in phosphate buffer (0.02 mol/L, pH 7.2) containing sucrose (0.4 mol/L), MgCl2 (0.005 mol/L) and NaCl (0.015 mol/L). The chlorophyll content was 30 mg/L in these experiments and the samples were irradiated (~100 W/m^2 with 10 cm distance) with a halogen lamp (250 W) using a 4 cm water filter to prevent warming of the samples (suspension temperature 22 °C). The studied compounds were dissolved in DMSO due to their limited water solubility. […] The inhibitory efficiency of the studied compounds was expressed by IC50 values, i.e., by molar concentration of the compounds causing 50% decrease in the oxygen evolution rate relative to the untreated control.

[3] = system: photosynthetic electron transport (PET) in isolated spinach chloroplasts; assay: Inhibition of photosynthetic electron transport (PET) in isolated spinach chloroplasts; assay type: biochemical, Spinacia oleracea L.; details: DCPIP photoreduction
Protocol: The PET-inhibiting activity was expressed by IC50 value, i.e., compound concentration in mol/L causing 50% inhibition of PET.
as §1

[4] = system: Mycobacterium avium subsp. paratuberculosis CIT03; assay: In vitro antimycobacterial evaluation (MIC/IC90, alamarBlue); assay type: cell-based; details: for MIC: Mycobacterium avium
Protocol: The MIC/IC90 value is routinely and widely used in bacterial assays and is a standard detection limit according to the Clinical and Laboratory Standards Institute.
A well-characterized clinical isolate of Mycobacterium avium subsp. paratuberculosis (CIT03) was grown in Middlebrook broth (MB), supplemented with Oleic-Albumin-Dextrose-Catalase supplement (OADC, Becton, Dickinson and Comp., Franklin Lakes, NJ, USA) and mycobactin J (2 µg/mL). Identification of this isolate was performed using biochemical and molecular protocols. At log phase growth, a culture sample (10 mL) was centrifuged at 15,000 rpm/20 min using a bench top centrifuge (Model CR 4-12, Jouan Inc., Winchester, VA, USA). Following removal of the supernatant, the pellet was washed in fresh Middlebrook 7H9GC broth and re-suspended in fresh supplemented MB (10 mL). The turbidity was adjusted to match McFarland standard No. 1 (3 × 10^8 cfu) with MB broth. A further 1:20 dilution of the culture was then performed in MB broth. The antimicrobial susceptibility of the mycobacterial species was investigated in a 96-well plate format. In these experiments, sterile deionized water (300 µL) was added to all outer-perimeter wells of the plates to minimize evaporation of the medium in the test wells during incubation. Each evaluated compound (100 µL) was incubated with the mycobacterial species (100 µL). Dilutions of each compound were prepared in duplicate. For all synthesized compounds, final concentrations ranged from 1,000 µg/mL to 8 µg/mL. All compounds were prepared in DMSO and subsequent dilutions were made in supplemented MB. The plates were sealed with parafilm and incubated at 37 °C for 11 days.
Following incubation, a 10% addition of alamarBlue (AbD Serotec, Kidlington, UK) was mixed into each well and readings at 570 nm and 600 nm were taken, initially for background subtraction and subsequently after 24 h re-incubation. […] For non-interfering compounds, a blue colour in the well was interpreted as an absence of growth and a pink colour was scored as growth. Furthermore percent reduction of alamarBlue was calculated to generate quantitative data on cell viability during exposure to antimycobacterial compounds over a period of 5 days. The formula used to determine percent reduction of alamarBlue has been standardized for colorimetric analysis by Abd Serotec.
The MIC value is routinely and widely used in bacterial assays and is a standard detection limit according to the Clinical and Laboratory Standards Institute.

[5] = 264 h, clinical isolate CIT03, 11 days at 37 °C, alamarBlue, MIC = 90% or greater reduction of growth, read-out: MAP MIC/IC90

SMILES	log k [1]	solubility in tested medium (PET experiments) [2]	IC50 [3]	other results
O=C(Nc1ccccc1)c1cccc2ccccc12 [Compound 1, N-Phenylnaphthalene-1-carboxamide]	0.5620	–	–	–
COc1ccc(NC(=O)c2cccc3ccccc23)cc1 [Compound 2c, N-(4-Methoxyphenyl)naphthalene-1-carboxamide]	0.4953	–	–	–
Cc1ccccc1NC(=O)c1cccc2ccccc12 [Compound 3a, N-(2-Methylphenyl)naphthalene-1-carboxamide]	0.5309	–	–	–
O=C(Nc1ccccc1F)c1cccc2ccccc12 [Compound 4a, N-(2-Fluorophenyl)naphthalene-1-carboxamide]	0.5592	precipitation	–	–
O=C(Nc1ccc(F)cc1)c1cccc2ccccc12 [Compound 4c, N-(4-Fluorophenyl)naphthalene-1-carboxamide]	0.6315	precipitation	–	–
O=C(Nc1ccccc1Cl)c1cccc2ccccc12 [Compound 5a, N-(2-Chlorophenyl)naphthalene-1-carboxamide]	0.8322	precipitation	–	–
O=C(Nc1cccc(Cl)c1)c1cccc2ccccc12 [Compound 5b, N-(3-Chlorophenyl)naphthalene-1-carboxamide]	0.9357	–	107 µM	–
O=C(Nc1ccc(Cl)cc1)c1cccc2ccccc12 [Compound 5c, N-(4-Chlorophenyl)naphthalene-1-carboxamide]	0.9223	–	102 µM	–
O=C(Nc1ccccc1Br)c1cccc2ccccc12 [Compound 6a, N-(2-Bromophenyl)naphthalene-1-carboxamide]	0.8892	precipitation	–	–
O=C(Nc1cccc(Br)c1)c1cccc2ccccc12 [Compound 6b, N-(3-Bromophenyl)naphthalene-1-carboxamide]	1.0047	limited solubility	278 µM	–
O=C(Nc1ccc(Br)cc1)c1cccc2ccccc12 [Compound 6c, N-(4-Bromophenyl)naphthalene-1-carboxamide]	0.9985	limited solubility	365 µM	MIC [4, 5]: 184 µM
O=C(Nc1ccccc1C(F)(F)F)c1cccc2ccccc12 [Compound 7a, N-[2-(Trifluoromethyl)phenyl]naphthalene-1-carboxamide]	0.7595	precipitation	–	–
O=C(Nc1cccc(C(F)(F)F)c1)c1cccc2ccccc12 [Compound 7b, N-[3-(Trifluoromethyl)phenyl]naphthalene-1-carboxamide]	1.0862	–	114 µM	–
O=C(Nc1ccc(C(F)(F)F)cc1)c1cccc2ccccc12 [Compound 7c, N-[4-(Trifluoromethyl)phenyl]naphthalene-1-carboxamide]	1.1480	–	59 µM	MIC [4, 5]: 793 µM
O=C(Nc1ccccc1[N+](=O)[O-])c1cccc2ccccc12 [Compound 8a, N-(2-Nitrophenyl)naphthalene-1-carboxamide]	0.9090	limited solubility	476 µM	–
O=C(Nc1cccc([N+](=O)[O-])c1)c1cccc2ccccc12 [Compound 8b, N-(3-Nitrophenyl)naphthalene-1-carboxamide]	0.8155	limited solubility	492 µM	–
O=C(Nc1ccc([N+](=O)[O-])cc1)c1cccc2ccccc12 [Compound 8c, N-(4-Nitrophenyl)naphthalene-1-carboxamide]	0.7328	–	129 µM	–
CN(C)C(=O)Nc1ccc(Cl)c(Cl)c1 [DCMU, 3-(3,4-dichlorophenyl)-1,1-dimethylurea, reference compound]	–	–	~1.9 µM and 1.9 µM	–
NNC(=O)c1ccncc1 [INH, isoniazid, reference compound]	–	–	–	MIC [4, 5]: 1820 µM
CO[C@H]1/C=C/O[C@@]2(C)Oc3c(C)c(O)c4c(O)c(c(/C=N/N5CCN(C)CC5)c(O)c4c3C2=O)NC(=O)/C(C)=C\C=C\[C@H](C)[C@H](O)[C@@H](C)[C@@H](O)[C@@H](C)[C@H](OC(C)=O)[C@@H]1C [RIF, rifampicin, reference compound]	–	–	–	MIC ([4]; 264 h, read-out: MAP MIC/IC90): 109 µM; MIC ([4]; clinical isolate CIT03, read-out: MIC): 90 µg/mL; MAP MIC/IC90 ([4]; clinical isolate CIT03, 11 days at 37 °C, alamarBlue, MIC = 90% or greater reduction of growth): 109 µM
